Reference: ChEMBL document CHEMBL5608172, “Structural modification strategies of triazoles in anticancer drug development” (Eur J Med Chem, 2024)

Legend:
[1] = test system: Detroit 562; assay: Antiproliferative activity against human Detroit 562 cells; type: functional, cell-based
[2] = test system: HCT-116; assay: Cytotoxicity against human HCT-116 cells assessed as reduction in cell growth incubated for 24 hrs by MTT assay; type: functional, cell-based; settings: HCT-116, 24 h
[3] = test system: HeLa; assay: Cytotoxicity against human HeLa cells assessed as reduction in cell viability after 72 hrs by MTT assay; type: functional, cell-based
[4] = test system: HL-60; assay: Antiproliferative activity against human HL-60 cells; type: functional, cell-based
[5] = test system: U-937; assay: Antiproliferative activity against human U-937 cells; type: functional, cell-based
[6] = test system: PC-3; assay: Cytotoxicity against human PC-3 cells assessed as reduction in cell growth incubated for 3 days by MTT assay; type: functional, cell-based; settings: PC-3, 72 h
[7] = test system: HCT-116; assay: Cytotoxicity against human HCT-116 cells assessed as reduction in cell viability measured after 48 hrs by MTT assay; type: functional, cell-based; settings: HCT-116, 48 h
[8] = test system: A549; assay: Anticancer activity against human A549 cells assessed as reduction in cell viability by MTT assay; type: functional, cell-based
[9] = test system: HeLa; assay: Anticancer activity against human HeLa cells assessed as reduction in cell viability by MTT assay; type: functional, cell-based
[10] = test system: SNB-19; assay: Cytotoxicity against human SNB-19 cells assessed as reduction in cell growth incubated for 24 hrs by MTT assay; type: functional, cell-based; settings: SNB-19, 24 h
[11] = test system: MCF7; assay: Cytotoxicity against human MCF7 cells assessed as reduction in cell growth incubated for 24 hrs by MTT assay; type: functional, cell-based; settings: MCF7, 24 h
[12] = test system: T47D; assay: Cytotoxicity against human T47D cells assessed as reduction in cell growth incubated for 24 hrs by MTT assay; type: functional, cell-based
[13] = test system: AGS; assay: Anticancer activity against human AGS cells; type: functional, cell-based
[14] = test system: MCF7; assay: Cytotoxicity against human MCF7 cells assessed as cell growth inhibition incubated for 72 hrs by SRB assay; type: functional, cell-based; settings: MCF7, 72 h
[15] = test system: CCRF-CEM; assay: Antiproliferative activity against human CCRF-CEM cells; type: functional, cell-based
[16] = test system: SW-620; assay: Antiproliferative activity against human SW620 cells assessed as inhibition of cell growth measured after 72 hrs by MTT assay; type: functional, cell-based; settings: SW-620, 72 h
[17] = test system: MCF7; assay: Cytotoxicity against human MCF7 cells assessed as reduction in cell growth incubated for 72 hrs by MTT assay; type: functional, cell-based; settings: MCF7, 72 h
[18] = Cytotoxicity against hTERT Lung Fibroblast cells assessed as reduction in cell growth incubated for 72 hrs by MTT assay; type: toxicity, cell-based; settings: human
[19] = test system: MCF7; assay: Cytotoxicity against human MCF7 cells assessed as reduction in cell viability incubated for 48 hrs by MTT assay; type: functional, cell-based; settings: MCF7, 48 h
[20] = test system: HCT-116; assay: Cytotoxicity against human HCT-116 cells assessed as reduction in cell viability incubated for 24 hrs by MTT assay; type: functional, cell-based; settings: HCT-116, 24 h
[21] = test system: MDA-MB-231; assay: Antiproliferative activity against human MDA-MB-231 cells assessed as reduction in cell viability; type: functional, cell-based
[22] = test system: MCF7; assay: Antiproliferative activity against human MCF7 cells assessed as reduction in cell viability; type: functional, cell-based
[23] = test system: HCT-116; assay: Antiproliferative activity against human HCT-116 cells assessed as inhibition of cell growth measured after 72 hrs by MTT assay; type: functional, cell-based; settings: HCT-116, 72 h
[24] = test system: HepG2; assay: Anticancer activity against human HepG2 cells; type: functional, cell-based
[25] = test system: PC-3; assay: Antiproliferative activity against human PC-3 cells assessed as reduction in cell viability incubated for 72 hrs by MTT assay; type: functional, cell-based; settings: PC-3, 72 h
[26] = test system: K562; assay: Antiproliferative activity against human K562 cells assessed as reduction in cell viability incubated for 72 hrs by MTT assay; type: functional, cell-based; settings: K562, 72 h
[27] = test system: MCF7; assay: Antiproliferative activity against human MCF7 cells assessed as reduction in cell growth incubated for 24 hrs by MTT assay; type: functional, cell-based; settings: MCF7, 24 h
[28] = test system: Huh-7; assay: Cytotoxicity against human Huh-7 cells assessed as cell growth inhibition incubated for 72 hrs by SRB assay; type: functional, cell-based; settings: Huh-7, 72 h
[29] = test system: HeLa; assay: Cytotoxicity against human HeLa cells by MTT assay; type: functional, cell-based

With `COc1cc(C(=O)/C=C/c2ccccc2)cc(OC)c1OC` as the compound, how does the IC50 [1] read?
The IC50 was 3070 nM.

With `C=C(C)[C@@H]1CC[C@]2(COC(C)=O)CC[C@]3(C)[C@H](CC[C@@H]4[C@@]5(C)Cc6nn(C(C)=O)nc6C(C)(C)[C@@H]5CC[C@]43C)[C@@H]12` as the compound, how does the IC50 [2] read?
The IC50 was 22500 nM.

With `C=C(C)[C@@H]1CC[C@]2(CO)CC[C@]3(C)[C@H](CC[C@@H]4[C@@]5(C)Cc6nn(C(C)=O)nc6C(C)(C)[C@@H]5CC[C@]43C)[C@@H]12` as the compound, how does the IC50 [2] read?
The IC50 was 5670 nM.

For `CC(=O)O[C@@H]1[C@H](OC(C)=O)[C@H](OC(C)=O)CO[C@H]1n1cc(COC(=O)[C@]2(C)CCC[C@@]3(C)[C@@H]4CC[C@@]5(C)C[C@]4(CC[C@@H]32)CC5=O)nn1`, which IC50 [3] is on record?
The IC50 was 1700 nM.

For `CNc1nc2ccccc2n2c(CCc3ccccc3)cnc12`, which IC50 [4] is on record?
The IC50 was 2070 nM.

And the IC50 [5]?
Its IC50 is 820 nM.

With `Cc1nn(-c2ccc(S(N)(=O)=O)cc2)c(N)c1-c1nnc(SC/C(=N\O)c2ccccc2)n1-c1ccccc1` as the compound, how does the IC50 [6] read?
The IC50 was 330 nM.

Which IC50 [7] does the source give for `CC(=O)O[C@@H]1O[C@H](Cn2cc(COc3cccc4cccnc34)nn2)[C@H](OC(C)=O)[C@H](OC(C)=O)[C@H]1OC(C)=O` here?
The IC50 was 10800 nM.

Which IC50 [8] does the source give for `O=Cc1cc(Cc2ccc3oc(C(=O)c4ccc(Cl)cc4)cc3c2)ccc1OCc1cn(-c2ccccc2C(F)(F)F)nn1` here?
Its IC50 is 40.4 nM.

What about the IC50 [9] of the same compound?
Its IC50 is 29.1 nM.

For `C=C(C)[C@@H]1CC[C@]2(COC(=O)c3cn(Cc4ccc(F)cc4)nn3)CC[C@]3(C)[C@H](CC[C@@H]4[C@@]5(C)CC[C@H](OC(=O)c6cnnn6Cc6ccc(F)cc6)C(C)(C)[C@@H]5CC[C@]43C)[C@@H]12`, which IC50 [10] is on record?
The IC50 was 80 nM.

And the IC50 [11]?
The IC50 was 90 nM.

And the IC50 [12]?
Its IC50 is 50 nM.

With `O=c1cc(-c2ccccc2)c2ccc(OCc3nncn3-c3ccc(Cl)cc3)cc2o1` as the compound, how does the IC50 [13] read?
The IC50 was 2630 nM.

Which IC50 [14] does the source give for `O=C(O)c1ccc(C(=O)NCn2cc(CSc3nc(-c4ccccc4)c(-c4ccccc4)n3-c3ccccc3)nn2)cc1` here?
Its IC50 is 380 nM.

With `COc1cc(/C=C/C(=O)/C(Cc2cnnn2Cc2ccc(F)cc2)=C(O)/C=C/c2ccc(O)c(OC)c2)ccc1O` as the compound, how does the IC50 [15] read?
Its IC50 is 3310 nM.

For `c1ccc(-n2cc(-c3nc4ccc(C5=NCCN5)cc4s3)nn2)cc1`, which IC50 [16] is on record?
Its IC50 is 250 nM.

With `CC(=O)O[C@H]1CC[C@]2(C)[C@H]3CC=C4[C@@H]5[C@@H](C)[C@H](C)CC[C@]5(C(=O)OCc5cn(Cc6nonc6C)nn5)CC[C@@]4(C)[C@]3(C)CC[C@H]2C1(C)C` as the compound, how does the IC50 [17] read?
Its IC50 is 1550 nM.

What about the IC50 at 72 h [18] of the same compound?
Its IC50 at 72 h is 10400 nM.

With `Cc1nccc2c1[nH]c1cc(OCc3cn(-c4cc(=O)oc5ccccc45)nn3)ccc12` as the compound, how does the IC50 [19] read?
Its IC50 is 6900 nM.

Which IC50 [20] does the source give for `O=c1oc2ccccc2c2c1cnn2Cc1cn(-c2ccc(Cl)cc2)nn1` here?
The IC50 was 20200 nM.

Which IC50 [21] does the source give for `CC(C)[C@@H]1CC[C@@H](C)C[C@@H]1On1cc(CN2C(=O)C(=O)c3ccccc32)nn1` here?
Its IC50 is 1790 nM.

What about the IC50 [22] of the same compound?
Its IC50 is 1340 nM.

With `CCc1nnc2c(-c3ccccc3)cc3c(Br)c(OC)c(OC)cc3n12` as the compound, how does the IC50 [23] read?
The IC50 was 500 nM.

With `Nn1c(Sc2c(O)c3ccccc3oc2=O)nnc1-c1ccc(Cl)cc1` as the compound, how does the IC50 [24] read?
The IC50 was 1780 nM.

What does the source list for `CC(C)(C)c1ccc(-c2cn(Cc3cc4c(o3)-c3ccccc3C(=O)C4=O)nn2)cc1`?
IC50 [25]: 1400 nM; IC50 [26]: 900 nM

With `CC(=O)O[C@@H]1O[C@H](Cn2cc(COc3cccc4cccnc34)nn2)[C@@H](OC(C)=O)[C@H](OC(C)=O)[C@H]1OC(C)=O` as the compound, how does the IC50 [7] read?
The IC50 was 22300 nM.

With `COC(=O)c1ccccc1-n1ncc(CSc2nnc(-c3ccccc3)o2)n1` as the compound, how does the IC50 [27] read?
Its IC50 is 1260 nM.

Which IC50 [28] does the source give for `Cc1ccc(Cn2cc(Cn3c(Cl)cc(=O)n(C)c3=O)nn2)cc1` here?
The IC50 was 7700 nM.

What about the IC50 [29] of the same compound?
The IC50 was 4500 nM.
